This data set can be described thus: Aerodynamic particle size distribution (APSD) by Next Generation Impactor (NGI), fine particle mass and its stability. Conditions: 1000 μg dose load in 20 mg formulation, NGI 60 Lmin^−1, F1 device. Type of data set: physicochemical. The method, then:
The aerodynamic particle size distribution (APSD) of the formulations was evaluated with the Next Generation Impactor (NGI) tested at a flow rate of 80 Lmin^−1 in the GyroHaler® device (Compound 1—Gentisic Acid) and 60 Lmin^−1 in the F1 device (Compound 1, Compound 1—Maleic Acid and Compound 1—Adipic Acid). One dose was collected for each NGI measurement. Compound 1 deposition on the NGI components was measured by a gradient high performance liquid Chromatography (HPLC) method with UV detection.
The co-crystals with adipic acid and maleic acid were tested in a Vectura unit dose device as disclosed in WO2010/086285, and the gentisic acid co-crystal was tested in a GyroHaler® device.

Take `Cn1c(=O)n([C@H]2CCCN(C(=O)CC#N)C2)c2nc(-c3cnn4ccccc34)ccc21` [Compound 1, (S)-3-(3-(1-methyl-2-oxo-5-(pyrazolo[1,5-a]pyridine-3-yl)-1H-imidazo[4,5-b]pyridine-3(2H)-yl)piperidin-1-yl)-3-oxopropanenitrile]: the “Fine particle Mass (μg < 5 μm)” value is, setting by setting: (T = 0 w) 418.2 µg; (T = 4 w) 450.7 µg; (T = 12 w) 415.3 µg.

Values taken from patent US10155757B2, “Crystalline form of a JAK3 kinase inhibitor” (VECTURA LIMITED, priority 2015, dated 2018).
